For one assay, the system named is Enterococcus. Description: culture and susceptibility results of anal swab specimens (VRE screen media). It counts as cell-based. How it is done: An additional 56 specimens obtained from anal swabs were analyzed using the LIGHTCYCLER™ assay and were compared to a culture method using a VRE screen media. The anal swabs were prepared for amplification as described above. The LIGHTCYCLER™ assay detected more positive specimens than did culture, and is therefore more sensitive than culture. A high rate of false negative results from rectal swab culture has been previously confirmed in the literature (Clin. Infect. Dis., 2002, 34:167–172).

Assay [1] has as its system vanA strains of vancomycin-resistant enterococci. The note with it: cited from earlier work; for glycopeptide resistance phenotype: vanA phenotype.
Assay [2] relates to vanB strains of vancomycin-resistant enterococci. The note with it: vanB phenotypes (vanB, vanB-2/3); cited from earlier work.
Assay [3] concerns vanC phenotype of vancomycin-resistant enterococci. The note with it: cited from earlier work.
Assay [4] concerns clinical isolates of Enterococcus. Description: agar dilution antimicrobial susceptibility testing (MIC) of clinical isolates of Enterococcus. The format is cell-based. As to the method: One hundred clinical isolates of Enterococcus (E. casseliflavus/flavescens [n=10], E. faecalis [n=34], E. faecium [n=43], E. avium [n=1], E. gallinarum [n=11], and E. raffinosus [n=1]) were grown on blood agar plates and evaluated for the presence of vanA, vanB, and vanB 2/3 genes using a rapid LIGHTCYCLER™ vancomycin-resistant enteroccoci assay. The LIGHTCYCLER™ vancomycin-resistant enteroccoci assay differentiates the three van genes based on the temperature range over which hybridization probes melt from the target DNA (e.g., as determined by a melting curve). […] The MIC values for all of the other isolates were susceptible to vancomycin at ≦8 μg/ml.
On the technique in general: In agar dilution, organisms are placed on agar that contains the substance at set levels.

The test system of assay [5] is Enterococcus isolates from anal swabs. The assay is described as follows: MIC of isolates cultured from anal swabs of hospitalized patients. The format is cell-based. How it is done:
Four hundred ninety seven anal swabs collected from hospitalized patients were evaluated for the presence of vanA, vanB and vanB-2/3 genes by the LIGHTCYCLER™ vancomycin-resistant enterococci assay and by conventional culture methods. 482 of the 497 specimens were negative for the van genes and 12 were positive (9 vanA; 0 vanB; 3 vanB-2/3) by the LIGHTCYCLER™ vancomycin-resistant enterococci assay and the conventional culture screen using an 8 μg/ml Enterococcosel plate. […] The MIC values for all of the other isolates were susceptible to vancomycin at ≦8 μg/ml. An additional 21 specimens (4 vanA; 5 vanB; 12 vanB-2/3) were positive by the LIGHTCYCLER™ vancomycin-resistant enterococci assay but were negative by culture. Three of these patient specimens were culture positive with a repeat swab collection. Six of the positive specimens were separate specimens from the same patients. Due to the large number of vanB genotypes missed by culture and picked up with the LIGHTCYCLER™ vancomycin-resistant enterococci assay, the concentration of vancomycin in the Enterococcesel plates was decreased to 6 μg/ml, which is the usual laboratory standard (Manual of Clinical Microbiology, 7th Ed., 1999).

Where [6] appears, read: Enterococcus cultured from anal swab specimen #52 (LightCycler VanA).
Setting [7] is: Enterococcus cultured from anal swab specimen #235 (LightCycler VanA).
Where [8] appears, read: Enterococcus cultured from anal swab specimen #244 (LightCycler VanA).
[9] abbreviates: Enterococcus cultured from anal swab specimen #279 (LightCycler VanB-2/3).
[10] abbreviates: Enterococcus cultured from anal swab specimen #286 (LightCycler VanB-2/3 weak).
[11] abbreviates: Enterococcus cultured from anal swab specimen #296 (LightCycler Negative).
Where [12] appears, read: Enterococcus cultured from anal swab specimen #304 (LightCycler Negative).
The mark [13] stands for this setting: Enterococcus cultured from anal swab specimen #419 (LightCycler VanA).
[14] abbreviates: Enterococcus cultured from anal swab specimen #425 (LightCycler Negative).

Take Gentamycin: the “Susceptibility Results” value with Enterococcus (setting [6]) was “S”; in the assay with Enterococcus (setting [7]), “Amp, Van, Pen, Gent = R”; with Enterococcus (setting [8]) it was “S”; with Enterococcus (setting [9]), “S”; in the assay on Enterococcus (setting [10]), “Amp, Van, Pen, Gent = S”; in the assay with Enterococcus (setting [11]), “Amp, Van, Pen, Gent = S”. Moreover, the “Susceptibility Results” value is given as “S” in the assay with Enterococcus (setting [12]), “I” with Enterococcus (setting [13]) and “S” with Enterococcus (setting [14]).

In the case of Pennicillin, the “Susceptibility Results” value was “S” with Enterococcus (setting [6]); “Amp, Van, Pen, Gent = R” in the assay with Enterococcus (setting [7]); “R” with Enterococcus (setting [8]); “R” with Enterococcus (setting [9]); “Amp, Van, Pen, Gent = S” in the assay with Enterococcus (setting [10]); “Amp, Van, Pen, Gent = S” with Enterococcus (setting [11]). Moreover, the “Susceptibility Results” value in the assay on Enterococcus (setting [12]) is given as “S”; in the assay with Enterococcus (setting [13]) it was “R”; in the assay with Enterococcus (setting [14]), “S”.

Consider `CC1(C)S[C@@H]2[C@H](NC(=O)[C@H](N)c3ccccc3)C(=O)N2[C@H]1C(=O)O` [Amp, Ampicillan], for which the “Susceptibility Results” value with Enterococcus (setting [6]) was “S”; with Enterococcus (setting [7]) it was “Amp, Van, Pen, Gent = R”; with Enterococcus (setting [8]), “R”; with Enterococcus (setting [9]), “R”; in the assay on Enterococcus (setting [10]), “Amp, Van, Pen, Gent = S”; with Enterococcus (setting [11]), “Amp, Van, Pen, Gent = S”. The “Susceptibility Results” value in the assay with Enterococcus (setting [12]) was “S”; in the assay with Enterococcus (setting [13]) it was “R”; in the assay on Enterococcus (setting [14]), “S”.

Consider teicoplanin, for which the glycopeptide resistance phenotype entry in assay [1] is on record as “high levels of resistance”; in assay [2], “susceptible”; in assay [3] it was “susceptible”.

Turning to `CN[C@H](CC(C)C)C(=O)N[C@H]1C(=O)N[C@@H](CC(N)=O)C(=O)N[C@H]2C(=O)N[C@H]3C(=O)N[C@H](C(=O)N[C@H](C(=O)O)c4cc(O)cc(O)c4-c4cc3ccc4O)[C@H](O)c3ccc(c(Cl)c3)Oc3cc2cc(c3O[C@@H]2O[C@H](CO)[C@@H](O)[C@H](O)[C@H]2O[C@H]2C[C@](C)(N)[C@H](O)[C@H](C)O2)Oc2ccc(cc2Cl)[C@H]1O` [vancomycin], the MIC in assay [4] (all of the other isolates (van gene negative), susceptible) is ≤ 8 µg/mL; in assay [4] (vanA, vanB, and vanB-2/3 positive isolates (43 of 100 clinical isolates), all resistant), ≥ 64 µg/mL; in assay [5] (all of the other isolates from anal swabs, susceptible), ≤ 8 µg/mL; in assay [5] (vanA and vanB positive isolates from anal swabs, all resistant) it was ≥ 64 µg/mL. The “Susceptibility Results” value with Enterococcus (setting [6]) is recorded as “I”; in the assay with Enterococcus (setting [7]), “Amp, Van, Pen, Gent = R”; in the assay with Enterococcus (setting [8]), “R”; in the assay on Enterococcus (setting [9]) it was “S”; in the assay on Enterococcus (setting [10]) it was “Amp, Van, Pen, Gent = S”; with Enterococcus (setting [11]), “Amp, Van, Pen, Gent = S”. For the same compound, the “Susceptibility Results” value is given as “I” in the assay with Enterococcus (setting [12]), “R” in the assay on Enterococcus (setting [13]) and “I” with Enterococcus (setting [14]). Also, the glycopeptide resistance phenotype entry in assay [1] is reported as “high levels of resistance”; in assay [2] it was “variable vancomycin-resistance”; in assay [3], “low levels of vancomycin-resistance”. The “minimum inhibitory concentration (MIC)” value in assay [1] (vanA strains, typical level) is > 64 µg/mL.

A word on the MIC: it is the least concentration at which growth counts as inhibited.

Source of the values: patent US7074598B2, “Detection of vancomycin-resistant enterococcus spp” (Mayo Foundation for Medical Education and Research, priority 2002, dated 2006).
